Consider 10 compounds from ChEMBL document CHEMBL1201862, “PubChem BioAssay data set” (2004).

Some test systems named below: HL-60; SK-MEL-5; T47D; OVCAR-3; M14; NCI-H460; SK-OV-3; HOP-92; RPMI-8226; SW-620; A498; RXF 393; SF-295; UACC-257; NCI-H522; LOX IMVI; MDA-N; BT-549; OVCAR-4; HCC 2998.
Common to all, as to assay: DTP human tumour cell line panel, 48 h

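Grown in 96-well plates, cells were treated for 48 hours with each compound at five concentrations. Insufficient inhibition: endpoint recorded as highest concentration tested. Abbreviation: GI50, concentration required for 50% inhibition of growth.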 Active and inactive are the calls of the source. Cut-off read from the data, not from the text of the source: active = GI50 up to about 1.1 µM and inactive = higher.

On to `COC(=O)C1=C(C)NC(C)=C(C(=O)OC)C1c1ccc(NO)cc1`, for which the GI50 in the assay on HL-60 was 1.53 µM (inactive); with SK-MEL-5, 15.4 µM (inactive); with T47D it was 7.23 µM (inactive); in the assay on OVCAR-3 it was 12.9 µM (inactive); in the assay with M14 it was 14.6 µM (inactive); in the assay on NCI-H460 it was 14.9 µM (inactive). Moreover, the GI50 with SK-OV-3 was 23.4 µM (inactive); in the assay with HOP-92, 2.68 µM (inactive); with RPMI-8226, 1.73 µM (inactive); with SW-620 it was 4.09 µM (inactive); in the assay on A498, 29.8 µM (inactive); in the assay with RXF 393 it was 15.8 µM (inactive). The GI50 in the assay on SF-295 was 17 µM (inactive); in the assay with UACC-257, 11 µM (inactive); in the assay with NCI-H522, 0.891 µM (active); in the assay with LOX IMVI, 5.68 µM (inactive); in the assay with MDA-N, 12.2 µM (inactive); with BT-549, 13.2 µM (inactive). Besides, the results for the GI50 with OVCAR-4 and in the assay on HCC 2998 were 10.6 µM (inactive) and 18.7 µM (inactive), respectively.

Regarding `COc1cc(/C=C/C(=O)O)ccc1OS(=O)(=O)O`, the GI50 with HL-60, in the assay with SK-MEL-5, with T47D, with OVCAR-3, in the assay with M14 and in the assay on NCI-H460 was > 100 µM (inactive) each time. In addition, the GI50 in the assay with SK-OV-3, in the assay on HOP-92, in the assay on RPMI-8226, in the assay on SW-620, in the assay with A498 and in the assay on RXF 393 was > 100 µM (inactive) each time. Besides, the GI50 in the assay on SF-295, with UACC-257, with NCI-H522, in the assay with LOX IMVI, in the assay on MDA-N and in the assay on BT-549 was > 100 µM (inactive) each time. The GI50 in the assay on OVCAR-4 and in the assay with HCC 2998 was > 100 µM (inactive) throughout.

Consider `O=C(O)[C@H]1NC[C@H]2C(Br)=NO[C@@H]12`, for which the GI50 with HL-60, in the assay on SK-MEL-5, in the assay with T47D, in the assay on OVCAR-3, in the assay on M14 and in the assay with NCI-H460 was > 100 µM (inactive) throughout. In addition, the GI50 in the assay with SK-OV-3, in the assay with HOP-92, in the assay on RPMI-8226, in the assay on SW-620, with A498 and with RXF 393 was > 100 µM (inactive) in each case. Besides, the GI50 in the assay on SF-295, in the assay on UACC-257, with NCI-H522, in the assay with LOX IMVI, in the assay on MDA-N and in the assay with BT-549 was > 100 µM (inactive) in each case. Moreover, the GI50 in the assay on OVCAR-4 and in the assay with HCC 2998 was > 100 µM (inactive) in each case.

Take `CCCC(=O)OCC1OC(n2cc(F)c(=O)[nH]c2=O)CC1OC(=O)CCC` (stereo not given): the GI50 with HL-60 is 0.247 µM (active); with SK-MEL-5, 0.279 µM (active); in the assay on T47D, > 6.15 µM (inactive); in the assay with OVCAR-3, 1.67 µM (inactive); in the assay on M14, 0.312 µM (active); in the assay on NCI-H460, 0.119 µM (active). Also, the GI50 with SK-OV-3 was > 2.93 µM (inactive); in the assay on HOP-92, 0.509 µM (active); in the assay on RPMI-8226 it was 0.973 µM (active); with SW-620, > 10 µM (inactive); in the assay with A498, 0.484 µM (active); with RXF 393, > 9.2 µM (inactive). Moreover, the GI50 in the assay with SF-295 is 0.127 µM (active); with UACC-257, 3.79 µM (inactive); in the assay on NCI-H522, 5.22 µM (inactive); with LOX IMVI, 0.0236 µM (active); with MDA-N, 1.25 µM (inactive); in the assay with BT-549, 0.376 µM (active). For the same compound, the GI50 with OVCAR-4 was > 10 µM (inactive); in the assay with HCC 2998, 0.0113 µM (active).

For `c1ccc(CNc2c3c(nc4ccccc24)CCC3)cc1`, the GI50 in the assay on HL-60 is 0.0303 µM (active); in the assay with SK-MEL-5, 11.7 µM (inactive); in the assay with T47D, 12.7 µM (inactive); in the assay on OVCAR-3 it was 12.2 µM (inactive); in the assay on M14, 13.7 µM (inactive); in the assay with NCI-H460, 10.6 µM (inactive). Besides, the GI50 was 15.4 µM (inactive) in the assay with SK-OV-3; 10.4 µM (inactive) in the assay with HOP-92; 10 µM (inactive) in the assay on RPMI-8226; 11.9 µM (inactive) with SW-620; 11.7 µM (inactive) in the assay with A498; 14 µM (inactive) with RXF 393. Also, the GI50 in the assay with SF-295 was 6.84 µM (inactive); in the assay on UACC-257 it was 13.6 µM (inactive); with NCI-H522, 15.7 µM (inactive); with LOX IMVI it was 14 µM (inactive); in the assay with MDA-N, 14.7 µM (inactive); with BT-549 it was 17.9 µM (inactive). In addition, the GI50 in the assay with OVCAR-4 is 15 µM (inactive); with HCC 2998 it was 13.5 µM (inactive).

Consider `CC1CNC(c2ccc(CN3CCC(C4CCN(Cc5ccc(C6=NC(C)CN6)cc5)CC4)CC3)cc2)=N1` (stereo not given), for which the GI50 is 36.1 µM (inactive) with HL-60; 36.2 µM (inactive) with SK-MEL-5; 19.5 µM (inactive) in the assay on T47D; 17.5 µM (inactive) with OVCAR-3; 20.2 µM (inactive) in the assay with M14; 18.5 µM (inactive) with NCI-H460. Moreover, the GI50 in the assay on SK-OV-3 was 16.3 µM (inactive); with HOP-92, 75.7 µM (inactive); in the assay on RPMI-8226 it was 19.5 µM (inactive); in the assay with SW-620 it was 18.2 µM (inactive); in the assay with A498, 29.2 µM (inactive); in the assay with RXF 393, 16.9 µM (inactive). For the same compound, the GI50 in the assay with SF-295 is 17 µM (inactive); in the assay on UACC-257, 24.2 µM (inactive); with NCI-H522 it was 15 µM (inactive); in the assay with LOX IMVI it was 22.7 µM (inactive); in the assay with MDA-N, 21.3 µM (inactive); with BT-549, > 100 µM (inactive). In addition, the figures for the GI50 with OVCAR-4 and in the assay with HCC 2998 were 16.8 µM (inactive) and 14.6 µM (inactive), respectively.

As to `COC1CCC(OC2CC(C3(C)CCC4(CC(O)C(C)C(C(C)/C=C(\C)C(=O)C(C)CC(C)C(=O)O)O4)O3)OC3(OC(C4OC(O)(CO)C(C)CC4C)CC3C)C2C)OC1C` (stereo not given), the GI50 with HL-60 was < 0.01 µM (active); in the assay with SK-MEL-5 it was < 0.0201 µM (active); in the assay on T47D, < 0.01 µM (active); in the assay with OVCAR-3, < 0.01 µM (active); with M14 it was 0.122 µM (active); in the assay with NCI-H460 it was < 0.0144 µM (active). Moreover, the GI50 was 0.528 µM (active) in the assay on SK-OV-3; 0.482 µM (active) in the assay with HOP-92; < 0.01 µM (active) in the assay on RPMI-8226; < 0.0269 µM (active) in the assay with SW-620; < 0.0169 µM (active) with A498; < 0.01 µM (active) in the assay with RXF 393. The GI50 in the assay on SF-295 was 0.179 µM (active); with UACC-257, < 0.0199 µM (active); with NCI-H522, < 0.01 µM (active); in the assay with LOX IMVI it was < 0.0253 µM (active); in the assay with MDA-N, 0.0811 µM (active); with BT-549, < 0.0324 µM (active). In addition, the GI50 in the assay on OVCAR-4 was 0.337 µM (active); with HCC 2998 it was < 0.0247 µM (active).

For `O=C1CC2SC(COCc3ccccc3)(CCN2Cc2ccccc2)C1` (stereo not given), the GI50 in the assay with HL-60 was 18 µM (inactive); with SK-MEL-5 it was 19.5 µM (inactive); in the assay with T47D it was 54.6 µM (inactive); in the assay with OVCAR-3 it was > 100 µM (inactive); with M14, 49.1 µM (inactive); with NCI-H460, 54.6 µM (inactive). The GI50 with SK-OV-3 was > 100 µM (inactive); in the assay with HOP-92 it was 45.6 µM (inactive); with RPMI-8226 it was 30.2 µM (inactive); in the assay on SW-620, > 100 µM (inactive); with A498 it was > 100 µM (inactive); in the assay on RXF 393, > 100 µM (inactive). Moreover, the GI50 in the assay with SF-295 was 61.2 µM (inactive); with UACC-257, 37.1 µM (inactive); in the assay on NCI-H522, 56.8 µM (inactive); in the assay on LOX IMVI it was 31.8 µM (inactive); in the assay on MDA-N, 71.4 µM (inactive); in the assay on BT-549, 51.1 µM (inactive). The figures for the GI50 in the assay on OVCAR-4 and with HCC 2998 were 61.9 µM (inactive) and > 100 µM (inactive), respectively.

Regarding `CC[C@H]1C=CCC[C@@]2(C[C@@H]3CC[C@@H]4[C@H](C(=O)OCCCCCCCCCCCCCCCC(=O)N(CCCN)C[C@@H](O)CCN)[C@]5(CCC[C@@H](C)O5)NC(=[N+]34)N2)O1`, the GI50 is 0.318 µM (active) in the assay with HL-60; 0.0407 µM (active) in the assay with SK-MEL-5; 0.824 µM (active) with T47D; 0.887 µM (active) in the assay with OVCAR-3; 0.0249 µM (active) in the assay on M14; 0.443 µM (active) in the assay with NCI-H460. Further, the GI50 in the assay with SK-OV-3 was 2.05 µM (inactive); in the assay with HOP-92, 0.158 µM (active); in the assay on RPMI-8226, 0.0855 µM (active); with SW-620, 0.352 µM (active); with A498 it was 0.625 µM (active); with RXF 393, 0.439 µM (active). Besides, the GI50 in the assay on SF-295 was 0.518 µM (active); in the assay with UACC-257, 0.122 µM (active); in the assay with NCI-H522 it was 0.174 µM (active); with LOX IMVI, 0.248 µM (active); in the assay on MDA-N, 0.127 µM (active); with BT-549, 0.807 µM (active). Moreover, the figures for the 50% growth inhibitory concentration (GI50) with OVCAR-4 and in the assay with HCC 2998 were 0.474 µM (active) and 0.175 µM (active), respectively.

Regarding `Cc1nc(SCC(=O)Nc2ccccc2)c2sc(=S)n(-c3ccccc3)c2n1`, the GI50 with HL-60, in the assay with SK-MEL-5, in the assay with T47D, in the assay with OVCAR-3, in the assay on M14 and in the assay with NCI-H460 was > 10 µM (inactive) throughout. Also, the GI50 in the assay with SK-OV-3, in the assay on HOP-92, with RPMI-8226, in the assay with SW-620, in the assay with A498 and with RXF 393 was > 10 µM (inactive) throughout. Moreover, the GI50 in the assay on SF-295, in the assay with UACC-257, with NCI-H522, in the assay on LOX IMVI, in the assay on MDA-N and in the assay on BT-549 was > 10 µM (inactive) each time. Also, the GI50 is 5.62 µM (inactive) with OVCAR-4 and > 10 µM (inactive) with HCC 2998.
